# Test results published in PubChem BioAssay AID1963972 (Molecular Pharmacology Branch, DTP, NCI, 2024).
# System: 945468-187-T-J2-PDC spheroids viability
# Assay: Anticancer human tumor 945468-187-T-J2-PDC patient-derived rectal carcinoma cell line growth inhibition [PI3K]
# Details: spheroids with HUVEC and MSC; for viability, T/C: stronger effect = lower value
# From the text: Combinatorial screen of targeted agents with the PI3K inhibitors inavolisib, alpelisib, duvelisib, and copanlisib in multi-cell type tumor spheroids
# A high-throughput screen of multi-cell type tumor spheroids was designed to identify active combinations of targeted small molecules and PI3K pathway inhibitors. Complex spheroids include a stromal component modeled by human endothelial cells (HUVEC) and fibroblasts modeled by human mesenchymal stem cells (MSCs). The concentration ranges selected for each drug and investigational agent were based upon clinically achievable concentrations if the clinical Cmax of the agent was known.
# Compounds. The drugs and investigational agents: inavolisib (NSC800729), alpelisib (NSC765974), duvelisib (NSC772469), copanlisib (NSC816437), ipatasertib (NSC767898), afuresertib (NSC778305), talazoparib (NSC767125), sapanisertib (NSC764658), selumetinib (NSC741078), tovorafenib (DAY101, NSC766906), vemurafenib (NSC761431), ravoxertinib (NSC781343), sotorasib (NSC818433), MRTX1133 (NSC 836407), abemaciclib (NSC 768073), palbociclib (NSC758247), venetoclax (NSC 766270), SY5609 (NSC837396), enzalutamide (NSC755605), and darolutamide (NSC825331), were obtained from the National Cancer Institute (NCI) Developmental Therapeutics Program Chemical Repository. The FDA-approved anticancer drug set is available from the NCI Developmental Therapeutics Program. […] The stock solutions were prepared in dimethyl sulfoxide (DMSO, Sigma-Aldrich, St. Louis, MO, cat. D2650) at 800-fold the tested concentration and stored at -70 degrees C prior to their use. All drugs and investigational agents were tested over a range starting from a high concentration at or near the clinical Cmax and decreasing in half-log increments. If the clinical Cmax for an agent had not been determined, the highest concentration tested was 10 microM.
# Cell Culture. All cells were maintained in an incubator at 37 degrees C and 5% CO2 with 95% humidity. The PDC lines were cultured according to standard operating procedures established by the NCI PDMR (https://pdmr.cancer.gov/sops/default.htm). All PDCs were thawed and cultured in Matrigel-coated flasks prepared with a working solution of 1X Ham's F-12 nutrient mix, without supplementation (Invitrogen, Waltham, MA, cat. 11765054), 100 U/mL penicillin-streptomycin (Invitrogen, cat. 15140122), and 2.5% Matrigel (Corning Inc., Corning, NY, cat. 354248) for the first three passages. The 354836-022-R-J1-PDC, 475296-252-R-J1-PDC, and 997726-040-R-J2-PDC lines were cultured in 6A media, which includes advanced DMEM/F-12 (Thermo Fisher Scientific, cat. 12634028), 10 mM HEPES (Thermo Fisher Scientific, cat. 15630080), 1X GlutaMAX supplement (Thermo Fisher Scientific, cat. 35050061), 0.1 mg/mL primocin (InvivoGen, San Diego, CA, cat. ant-pm-2), 10% defined fetal bovine serum, heat inactivated (HyClone Laboratories Inc., Logan, UT, cat. SH30070.03HI), 50% L-WRN conditioned media (ATCC, cat. CRL-3276), 1.25 mM N-Acetyl-L-cysteine (Sigma-Aldrich, cat. A9165), 10 mM nicotinamide (Sigma-Aldrich, cat. N0636), 1X B-27 supplement (Thermo Fisher Scientific, cat. 17504044), 1X N-2 supplement (Thermo Fisher Scientific, cat. 17502048), and 10 microM Y-27632 dihydrochloride (Tocris Bioscience, Bristol, United Kingdom, cat. 1254). The 624824-186-R-J2-PDC line was cultured in 6C/Colon 1B media, which includes all 6A media components plus 50 ng/mL human EGF recombinant protein (Thermo Fisher Scientific, cat. PHG0311). […]
# 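Further: spheroids exposed to compounds for seven days before reading.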
structure (smiles),measurement,setting,value
C#Cc1c(F)ccc2cc(O)cc(-c3ncc4c(N5CC6CCC(C5)N6)nc(OCC56CCCN5CC(F)C6)nc4c3F)c12 (stereo unspecified) + COc1c(OCCCN2CCOCC2)ccc2c3n(c(=NC(=O)c4cnc(N)nc4)nc12)CCN3,IC50,"curve of first compound, second compound 0.00316 µM",> 10 µM
same,IC50,"curve of first compound, second compound 0.01 µM",> 10 µM
same,IC50,"curve of first compound, second compound 0.0316 µM",> 10 µM
same,IC50,"curve of first compound, second compound 0.1 µM",> 10 µM
same,IC50,"curve of first compound, second compound 0.316 µM",< 0.0316 µM
same,IC50,"curve of first compound, second compound 1 µM",< 0.0316 µM
same,"viability, T/C","second compound 0.00316 µM, first compound 0.0316 µM",124%
same,"viability, T/C","second compound 0.00316 µM, first compound 0.1 µM",91.1%
same,"viability, T/C","second compound 0.00316 µM, first compound 0.316 µM",121%
same,"viability, T/C","second compound 0.00316 µM, first compound 1 µM",102%
same,"viability, T/C","second compound 0.00316 µM, first compound 3.16 µM",121%
same,"viability, T/C","second compound 0.00316 µM, first compound 10 µM",94.1%
same,"viability, T/C","second compound 0.01 µM, first compound 0.0316 µM",107%
same,"viability, T/C","second compound 0.01 µM, first compound 0.1 µM",98.8%
same,"viability, T/C","second compound 0.01 µM, first compound 0.316 µM",104%
same,"viability, T/C","second compound 0.01 µM, first compound 1 µM",88.1%
same,"viability, T/C","second compound 0.01 µM, first compound 3.16 µM",81.1%
same,"viability, T/C","second compound 0.01 µM, first compound 10 µM",97%
same,"viability, T/C","second compound 0.0316 µM, first compound 0.0316 µM",79%
same,"viability, T/C","second compound 0.0316 µM, first compound 0.1 µM",114%
same,"viability, T/C","second compound 0.0316 µM, first compound 0.316 µM",94.2%
same,"viability, T/C","second compound 0.0316 µM, first compound 1 µM",110%
same,"viability, T/C","second compound 0.0316 µM, first compound 3.16 µM",99%
same,"viability, T/C","second compound 0.0316 µM, first compound 10 µM",104%
same,"viability, T/C","second compound 0.1 µM, first compound 0.0316 µM",70.2%
same,"viability, T/C","second compound 0.1 µM, first compound 0.1 µM",95%
same,"viability, T/C","second compound 0.1 µM, first compound 0.316 µM",79.2%
same,"viability, T/C","second compound 0.1 µM, first compound 1 µM",81.4%
same,"viability, T/C","second compound 0.1 µM, first compound 3.16 µM",83.4%
same,"viability, T/C","second compound 0.1 µM, first compound 10 µM",59.8%
same,"viability, T/C","second compound 0.316 µM, first compound 0.0316 µM",44.6%
same,"viability, T/C","second compound 0.316 µM, first compound 0.1 µM",41.3%
same,"viability, T/C","second compound 0.316 µM, first compound 0.316 µM",45%
same,"viability, T/C","second compound 0.316 µM, first compound 1 µM",41.8%
same,"viability, T/C","second compound 0.316 µM, first compound 3.16 µM",33.1%
same,"viability, T/C","second compound 0.316 µM, first compound 10 µM",26.9%
same,"viability, T/C","second compound 1 µM, first compound 0.0316 µM",18.7%
same,"viability, T/C","second compound 1 µM, first compound 0.1 µM",17.3%
same,"viability, T/C","second compound 1 µM, first compound 0.316 µM",18.1%
same,"viability, T/C","second compound 1 µM, first compound 1 µM",19.2%
same,"viability, T/C","second compound 1 µM, first compound 3.16 µM",19.1%
same,"viability, T/C","second compound 1 µM, first compound 10 µM",14.4%
CC1(C)CCC(CN2CCN(c3ccc(C(=O)NS(=O)(=O)c4ccc(NCC5CCOCC5)c([N+](=O)[O-])c4)c(Oc4cnc5[nH]ccc5c4)c3)CC2)=C(c2ccc(Cl)cc2)C1,"viability, T/C",compound 0.316 µM,94.6% [middle of 4 runs]
same,"viability, T/C",compound 1 µM,103% [middle of 4 runs]
same,"viability, T/C",compound 3.16 µM,96.3% [middle of 4 runs]
same,IC50,curve of compound,> 10 µM
